In patent publication US20060229224A1, “Bleaching composition” (priority 2003, published 2006):
Where “and” joins values, the source holds several entries; their conditions need not be identical. Equal entries are not always repeated. Entries after “also recorded” stand apart in the source; their conditions may differ. Where two headings read alike, the source gives them in different places.

Legend:
[1] = system: 3T3
Protocol: (§1) Photo-bleaches were tested for photo-toxicity using the Photo-toxicity-In Vitro 3T3 NRU Photo-toxicity Test” of the Commission Directive 2000/33/EC of 25 Apr.

[2] = Photo-bleaching of palm oil stained cotton cloths in wash followed by weatherometer irradiation; details: staining relative to clean white cloth
Protocol: Palm oil stained cloths (Brazilian) were prepared as follows. Palm oil 0.06 g was added deposited onto individual woven white cotton cloth samples weighing 1.2 g each. The cloth samples were allowed to age for 1 hour before being washed. Each wash consisted of four stained cloths, 200 ml of 40° C. water and 1 g of Persil Colour-washing powder (purchased in UK, zeolite based). The wash liquor was agitated for 20 minutes then the clothes rinsed in cold water, wrung and irradiated in a weatherometer for 18 minutes. The weatherometer is designed to simulate outside line drying and was set to give 42 W/m2 in the UVA&B.
The washes were duplicated but with the addition of 9 ppm of the photo-bleach to the wash solution, corresponding to 0.18% by weight on the powder formulation.
After the wash/irradiation procedure the staining of the clothes relative to clean white cloth was measured on a reflectometer and expressed as the deltaE value.

[3] = system: 3T3; experiment: In Vitro 3T3 NRU Photo-toxicity Test; details: for Result: photo-toxicity classification
Protocol: as §1

[4] = Example 1, 9 ppm photo-bleach in wash solution, 40° C. wash, irradiated 18 minutes in weatherometer
[5] = Table 3, PIF quoted to 2 significant figures
[6] = Example 2, same procedure as Example 1, 9 ppm photo-bleach

Row | Molecule | PIF [3, 5] | Result ([3]; Table 3) | further results
1 | 2-sulphate anthraquinone |  |  | PIF [1]: >170
2 | O=C(c1ccccc1)C1(O)CCCCC1 [1-hydroxycyclohexylphenyl ketone] |  |  | PIF [1]: >7.5
3 | Cc1cc(C)c(C(=O)c2ccccc2)c(C)c1 [2,4,6-trimethylbenzophenone] | 28 | Photo-toxic (PIF≧5 or MPE≧0.1) | Average deltaE [2, 4]: 16.2
4 | CCc1ccc2c(c1)C(=O)c1ccccc1C2=O [2-ethylanthraquinone] | >1000 | Photo-toxic (PIF≧5 or MPE≧0.1) | Average deltaE [2, 4]: 2.5
5 | CC(C)(O)C(=O)c1ccc(OCCO)cc1 [2-hydroxy-4′-hydroxyethoxy-2-methylpropiophenone] | >120 | Photo-toxic (PIF≧5 or MPE≧0.1) | 
6 | CC1(C)[C@@H]2CC[C@@]1(C)C(=O)C2=O [Camphoroquinone] |  |  | Average deltaE [2, 6]: 23.5
7 | CN(C)CCCN1c2ccccc2Sc2ccc(Cl)cc21 [Chlorpromazine] | 43 | Photo-toxic (PIF≧5 or MPE≧0.1) | 
8 | Cc1cc(C)c(C(=O)P(=O)(C(=O)c2c(C)cc(C)cc2C)c2ccccc2)c(C)c1 [Phenylbis(2,4,6-trimethylbenzoyl)-phosphine oxide] | >12 | Photo-toxic (PIF≧5 or MPE≧0.1) | 
9 | CC1=CC(=O)c2ccccc2C1=O [Vitamin K3, 2-methyl-1,4-napthoquinone] | 2.3 | Non-photo-toxic (PIF<5 or MPE<0.1) | Average deltaE [2, 6]: 2.9; photo-toxicity classification [3]: not photo-toxic; also recorded: non-photo-toxic; PIF ([3]; experiments repeated twice more): 1.9 and 1.6
